This data set can be described thus: NMR check of guest exchange in a sealed tube heated to 150° C. As to conditions: sealed NMR tube heated to 150° C., about 1.4 atmospheres, d^6-acetone. Format: physicochemical. Here is the method: Nuclear magnetic resonance (NMR) spectroscopic investigations were carried out to verify the existence of the spheroidal hexamer in solution. […] FIG. […] The enlarged inset in FIG. 3 is the region of the spectrum displaying the methanol resonances. The peak assignments a, b, and c in the enlarged inset are for diaryl C—H, CH3 of the methanol guest, and CH3 of the methanol in the bulk solvent, respectively. Peak assignments d, e, and f are for the CH2 moiety adjacent to CH in the bridging group, the remaining CH2 groups, and the terminal CH3 group, respectively, on the R substituent. Peak g is the TMS internal standard.
The most significant features in the spectrum of FIG. 3 are the two methanol peaks, b and c, indicating, respectively, the methanol trapped within the hexameric spheroidal assembly and the methanol in the bulk solvent. Similar work was carried out in d^6-acetone, d^6-dimethyl sulfoxide, and d^8-toluene.

On to C-tridecylpyrogallol(4)arene, for which the “stability of guest/host assembly (methanol guest does not exchange with bulk solvent)” value was “stable”.
